{"source": "patent US20040148013A1", "about": "“Stent-based delivery statins to prevent restenosis” (priority 2003, published 2004)", "origin": "cited, not measured here", "key": {"neointimal accumulation": {"test_system": "neointimal accumulation", "settings": "in vivo, rat carotid artery injury model"}}}
{"compound": "CC(=O)O[C@H]1C(=O)[C@@]2(C)[C@H]([C@H](OC(=O)c3ccccc3)[C@]3(O)C[C@H](OC(=O)[C@H](O)[C@@H](NC(=O)c4ccccc4)c4ccccc4)C(C)=C1C3(C)C)[C@]1(OC(C)=O)CO[C@@H]1C[C@@H]2O", "note": "[Taxol®, Paclitaxel]", "values": [{"measurement": "induction of apoptosis", "setting": "SMC; biologically relevant concentrations", "value": "does not appear to induce apoptosis"}, {"measurement": "SMC proliferation", "setting": "SMC; in vitro", "value": "inhibited"}, {"measurement": "platelet-derived growth factor-stimulated SMC migration", "setting": "SMC; in vitro", "value": "inhibited"}, {"measurement": "neointimal accumulation", "setting": "neointimal accumulation", "value": "inhibited neointimal accumulation"}]}
